According to patent US4971970A, “Benzoheterocyclic compounds” (Otsuka Pharmaceutical Company, Limited, priority 1988, dated 1990):

System: Escherichia coli No. 29 strain
Test: Antimicrobial activity in vivo (ED50 in mice infected with Escherichia coli No. 29)
Settings: mice (10 per group), i.p. infection with E. coli No. 29 (10^5 -10^6 cells/mouse) in mucin, compound oral one hour after infection, observed one week, Probit method, read-out: 50 % effective dose (ED50)
Protocol: Experiment (Antimicrobial activity in vivo)
Escherichia coli No. 29 strain was cultured in a nutrient medium at 37° C., and the culture broth was diluted with the same medium and thereto was added an equivolume of 6 % mucin solution to prepare a cell solution.
The cell solution thus prepared (0.5 ml) (e. coli cells; 10^5 -10^6 cells/mouse) was intraperitoneally administered to mice (10 mice per group). […] From the number of dead mice and the survival mice, the 50 % effective dose (ED50) of the test compound was calculated by Probit method.

Q: For `Cc1c(F)c(N2CCNC(C)C2)cc2c1c(=O)c(C=O)cn2C1CC1` (stereo not shown) [1-Cyclopropyl-6-fluoro-7-(3-methyl-1-piperazinyl)-5-methyl-3-formyl-1,4-dihydro-4-oxoquinoline], which ED50 is on record?
A: 0.331 mg/kg
